Our source for the Activity and zone of inhibition values is ChEMBL document CHEMBL1148207, “Dictyosphaeric acids A and B: new decalactones from an undescribed Penicillium sp. obtained from the alga Dictyosphaeria versluyii” (2004).

Active and inactive are the calls of the source. The calls are words filed in the database; no cut-off is given here.

For assay [1], the system named is Candida albicans. Nature of the assay: Antimicrobial activity against Candida albicans at 200 ug/well. It is filed as functional, organism-based.
Assay [2] relates to Candida albicans. Kind of assay: Antimicrobial activity against Candida albicans at 50 ug/well. It is filed as functional.
Assay [3] relates to Enterococcus faecium. Nature of the assay: Antibacterial activity against vancomycin-resistant Enterococcus faecium at 50 ug/well. It is filed as functional.
For assay [4], the system named is Staphylococcus aureus. Kind of assay: Antibacterial activity against methicillin-resistant Staphylococcus aureus at 50 ug/well. It is filed as functional.
Assay [5] relates to Staphylococcus aureus. Kind of assay: Antibacterial activity against methicillin-resistant Staphylococcus aureus at 200 ug/well. It is filed as functional, organism-based.
In assay [6] the test system is Staphylococcus aureus. Kind of assay: Antibacterial activity against methicillin-sensitive Staphylococcus aureus at 200 ug/well. It is filed as functional, organism-based.
Assay [7] has as its system Enterococcus faecium. Nature of the assay: Antibacterial activity against vancomycin-resistant Enterococcus faecium at 200 ug/well. Format: functional, organism-based.
The test system of assay [8] is Staphylococcus aureus. Nature of the assay: Antibacterial activity against methicillin-sensitive Staphylococcus aureus at 50 ug/well. Format: functional.

In the case of `COc1cc(CO)cc2c1C(=O)c1c(O)cc(O)cc1C2=O`, the result in assay [1], in assay [2], in assay [3], in assay [4], in assay [5] and in assay [6] was inactive. Besides, the outcome in assay [7] and in assay [8] was inactive.
Take `C[C@H]1CCC[C@@H](O)[C@]2(O)C(=O)C[C@H](O)[C@@H]3OC(/C=C/C=C/C=C/C(=O)O)=C(C(=O)O1)[C@@H]32`: the result in assay [2], in assay [3], in assay [4] and in assay [8] was inactive.
Consider `C[C@H]1CCC[C@@H](O)[C@]2(O)C(=O)C=C[C@@H]3OC(/C=C/C=C/C=C/C(=O)O)=C(C(=O)O1)[C@@H]32` [DICTYOSPHAERIC ACID A], for which the zone of inhibition at 50 µg/disc amounted to 7 mm in assay [2] (read-out: IZ), 7 mm in assay [3] (read-out: IZ), 12 mm in assay [4] (read-out: IZ) and 11 mm in assay [8] (read-out: IZ).
